Molecular target: human GABA A receptor α5β3γ2 (Homo sapiens (Human), UniProt P18507+P31644)
Test: [3H]flumazenil competition binding assay, human GABA A α5β3γ2 receptors expressed in HEK293 cells
Settings: human receptor; displacement of [3H]flumazenil (0.5 nM); means of two determinations; read-out: hKi GABAAa5
Procedure, shortened: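 Competition for [3H]flumazenil binding on membranes of HEK293 cells transiently transfected with human α5β3γ2 receptors, in Krebs-tris buffer pH 7.5.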

Row | Compound | Ki
1 | CC(C)(CO)NC(=O)c1ccc(OCc2conc2-c2ccc(Cl)cc2)nc1 [Example 349, 6-[3-(4-Chloro-phenyl)-isoxazol-4-ylmethoxy]-N-(2-hydroxy-1,1-dimethyl-ethyl)-nicotinamide] | 39.9 nM
2 | CC(C)(CO)CNC(=O)c1ccc(OCc2conc2-c2ccc(Cl)cc2)nc1 [Example 350, 6-[3-(4-Chloro-phenyl)-isoxazol-4-ylmethoxy]-N-(3-hydroxy-2,2-dimethyl-propyl)-nicotinamide] | 22.9 nM
3 | CC(C)(C)OC(=O)N1CC(NC(=O)c2ccc(OCc3conc3-c3ccc(Cl)cc3)nc2)C1 [Example 351, 3-({6-[3-(4-Chloro-phenyl)-isoxazol-4-ylmethoxy]-pyridine-3-carbonyl}-amino)-azetidine-1-carboxylic acid tert-butyl ester] | 55.5 nM
4 | O=C(NC(CO)CO)c1ccc(OCc2conc2-c2ccc(Cl)cc2)nc1 [Example 353, 6-[3-(4-Chloro-phenyl)-isoxazol-4-ylmethoxy]-N-(2-hydroxy-1-hydroxymethyl-ethyl)-nicotinamide] | 5.5 nM
5 | C[C@H](CO)NC(=O)c1ccc(OCc2conc2-c2ccc(Cl)cc2)nc1 [Example 354, 6-[3-(4-Chloro-phenyl)-isoxazol-4-ylmethoxy]-N—((R)-2-hydroxy-1-methyl-ethyl)-nicotinamide] | 10.7 nM
6 | C[C@@H](CO)NC(=O)c1ccc(OCc2conc2-c2ccc(Cl)cc2)nc1 [Example 355, 6-[3-(4-Chloro-phenyl)-isoxazol-4-ylmethoxy]-N—((S)-2-hydroxy-1-methyl-ethyl)-nicotinamide] | 4.3 nM
7 | CC(=O)NCCNC(=O)c1ccc(OCc2conc2-c2ccc(Cl)cc2)nc1 [Example 356, N-(2-Acetylamino-ethyl)-6-[3-(4-chloro-phenyl)-isoxazol-4-ylmethoxy]-nicotinamide] | 13.1 nM
8 | C[C@H](NC(=O)c1ccc(OCc2conc2-c2ccc(Cl)cc2)nc1)C(F)(F)F [Example 357, 6-[3-(4-Chloro-phenyl)-isoxazol-4-ylmethoxy]-N—((S)-2,2,2-trifluoro-1-methyl-ethyl)-nicotinamide] | ~20 nM
9 | O=C(NC1CCOCC1)c1ccc(OCc2conc2-c2ccccn2)nc1 [Example 358, 6-(3-Pyridin-2-yl-isoxazol-4-ylmethoxy)-N-(tetrahydro-pyran-4-yl)-nicotinamide] | 17.8 nM
10 | CC(C)NC(=O)c1ccc(OCc2conc2-c2ccccn2)nc1 [Example 359, N-Isopropyl-6-(3-pyridin-2-yl-isoxazol-4-ylmethoxy)-nicotinamide] | 13.1 nM
11 | O=C(NC1CC1)c1ccc(OCc2conc2-c2ccccn2)nc1 [Example 360, N-Cyclopropyl-6-(3-pyridin-2-yl-isoxazol-4-ylmethoxy)-nicotinamide] | 18.9 nM
12 | O=C(NCC1CC1)c1ccc(OCc2conc2-c2ccccn2)nc1 [Example 361, N-Cyclopropylmethyl-6-(3-pyridin-2-yl-isoxazol-4-ylmethoxy)-nicotinamide] | 19 nM
13 | O=C(NCC(F)(F)F)c1ccc(OCc2conc2-c2ccccn2)nc1 [Example 362, 6-(3-Pyridin-2-yl-isoxazol-4-ylmethoxy)-N-(2,2,2-trifluoro-ethyl)-nicotinamide] | 8 nM
14 | O=C(NCCO)c1ccc(OCc2conc2-c2ccccn2)nc1 [Example 363, N-(2-Hydroxy-ethyl)-6-(3-pyridin-2-yl-isoxazol-4-ylmethoxy)-nicotinamide] | 19.9 nM
15 | CCNC(=O)c1ccc(OCc2conc2-c2ccccn2)nc1 [Example 364, N-Ethyl-6-(3-pyridin-2-yl-isoxazol-4-ylmethoxy)-nicotinamide] | 13.6 nM
16 | O=C(NC1CCOCC1)c1ccc(OCc2conc2-c2ccc(F)cn2)nc1 [Example 365, 6-[3-(5-Fluoro-pyridin-2-yl)-isoxazol-4-ylmethoxy]-(tetrahydro-pyran-4-yl)-nicotinamide] | 8 nM
17 | CC(C)NC(=O)c1ccc(OCc2conc2-c2ccc(F)cn2)nc1 [Example 366, 6-[3-(5-Fluoro-pyridin-2-yl)-isoxazol-4-ylmethoxy]-isopropyl-nicotinamide] | 6.8 nM
18 | O=C(NC1CC1)c1ccc(OCc2conc2-c2ccc(F)cn2)nc1 [Example 367, Cyclopropyl-6-[3-(5-fluoro-pyridin-2-yl)-isoxazol-4-ylmethoxy]-nicotinamide] | 13.5 nM
19 | CC(C)(CO)NC(=O)c1ccc(OCc2conc2-c2ccc(F)cn2)nc1 [Example 368, 6-[3-(5-Fluoro-pyridin-2-yl)-isoxazol-4-ylmethoxy]-(2-hydroxy-1,1-dimethyl-ethyl)-nicotinamide] | 44.9 nM
20 | O=C(NCC(F)(F)F)c1ccc(OCc2conc2-c2ccc(F)cn2)nc1 [Example 369, 6-[3-(5-Fluoro-pyridin-2-yl)-isoxazol-4-ylmethoxy]-(2,2,2-trifluoro-ethyl)-nicotinamide] | 9.3 nM
21 | O=C(NCCO)c1ccc(OCc2conc2-c2ccc(F)cn2)nc1 [Example 370, 6-[3-(5-Fluoro-pyridin-2-yl)-isoxazol-4-ylmethoxy]-(2-hydroxy-ethyl)-nicotinamide] | 21.4 nM
22 | CCNC(=O)c1ccc(OCc2conc2-c2ccc(F)cn2)nc1 [Example 371, Ethyl-6-[3-(5-fluoro-pyridin-2-yl)-isoxazol-4-ylmethoxy]-nicotinamide] | 14.1 nM
23 | CNC(=O)c1ccc(OCc2conc2-c2ccc(F)cn2)nc1 [Example 372, 6-[3-(5-Fluoro-pyridin-2-yl)-isoxazol-4-ylmethoxy]-methyl-nicotinamide] | 18.5 nM

Source: patent US8846719B2, “Isoxazolo-pyridine derivatives” (Roche Palo Alto LLC, priority 2007, dated 2014)
